Results as given in ChEMBL document CHEMBL1641589, “Phosphoramidate pronucleotides of cytostatic 6-aryl-7-deazapurine ribonucleosides” (Bioorg Med Chem, 2011).

tested on: not listed separately; experiment: Permeability from basolateral to apical side of human Caco2 cells at 10 uM after 60 to 120 mins by HPLC analysis; format: ADME, cell-based; settings: Caco-2

| Papp B→A at 10 µM [×10⁻⁶ cm/s] | SMILES |
| --- | --- |
| 13.2 | C[C@H](NP(=O)(OC[C@H]1O[C@@H](n2ccc3c(-c4cccs4)ncnc32)[C@H](O)[C@@H]1O)Oc1ccccc1)C(=O)OCc1ccccc1 (stereo not given in full) |
| 9.31 | OC[C@H]1O[C@@H](n2ccc3c(-c4cccs4)ncnc32)[C@H](O)[C@@H]1O |

tested on: not listed separately; experiment: Efflux ratio of permeability from basolateral to apical side over apical to basolateral side in human Caco2 cells at 10 uM after 60 to 120 mins by HPLC analysis; format: ADME, cell-based; settings: Caco-2

| efflux ratio at 10 µM | SMILES |
| --- | --- |
| 12 | C[C@H](NP(=O)(OC[C@H]1O[C@@H](n2ccc3c(-c4cccs4)ncnc32)[C@H](O)[C@@H]1O)Oc1ccccc1)C(=O)OCc1ccccc1 (stereo not given in full) |
| 5.9 | OC[C@H]1O[C@@H](n2ccc3c(-c4cccs4)ncnc32)[C@H](O)[C@@H]1O |

tested on: not listed separately; experiment: Permeability from apical to basolateral side of human Caco2 cells at 10 uM after 60 to 120 mins by HPLC analysis; format: ADME, cell-based; settings: Caco-2

| Papp A→B at 10 µM [×10⁻⁶ cm/s] | SMILES |
| --- | --- |
| 1.1 | C[C@H](NP(=O)(OC[C@H]1O[C@@H](n2ccc3c(-c4cccs4)ncnc32)[C@H](O)[C@@H]1O)Oc1ccccc1)C(=O)OCc1ccccc1 (stereo not given in full) |
| 1.57 | OC[C@H]1O[C@@H](n2ccc3c(-c4cccs4)ncnc32)[C@H](O)[C@@H]1O |

tested on: not listed separately; experiment: Permeability from apical to basolateral side at 10 uM after 60 to 120 mins by HPLC analysis; format: ADME; settings: not told

| Papp A→B at 10 µM [×10⁻⁶ cm/s] | SMILES |
| --- | --- |
| 29.9 | C[C@H](NP(=O)(OC[C@H]1O[C@@H](n2ccc3c(-c4cccs4)ncnc32)[C@H](O)[C@@H]1O)Oc1ccccc1)C(=O)OCc1ccccc1 (stereo not given in full) |
| 34.1 | OC[C@H]1O[C@@H](n2ccc3c(-c4cccs4)ncnc32)[C@H](O)[C@@H]1O |

tested on: CCRF-CEM; experiment: Cell cycle arrest in human CCRF-CEM cells assessed as increased of cellular debris level at IC50 concentration using propidium iodide staining by flow cytometry relative to control; format: functional; settings: not given

| SMILES | Activity [%] |
| --- | --- |
| C[C@H](NP(=O)(OC[C@H]1O[C@@H](n2ccc3c(-c4ccoc4)ncnc32)[C@H](O)[C@@H]1O)Oc1ccccc1)C(=O)OCc1ccccc1 (stereo not given in full) | 21.5 |
| C[C@H](NP(=O)(OC[C@H]1O[C@@H](n2ccc3c(-c4cccs4)ncnc32)[C@H](O)[C@@H]1O)Oc1ccccc1)C(=O)OCc1ccccc1 (stereo not given in full) | 49.5 |

tested on: CCRF-CEM; experiment: Cell cycle arrest in human CCRF-CEM cells assessed as accumulation at G2/M phase at IC50 concentration using propidium iodide staining by flow cytometry relative to control; format: functional; settings: not given

| SMILES | Activity [%] |
| --- | --- |
| C[C@H](NP(=O)(OC[C@H]1O[C@@H](n2ccc3c(-c4ccoc4)ncnc32)[C@H](O)[C@@H]1O)Oc1ccccc1)C(=O)OCc1ccccc1 (stereo not given in full) | 8.4 |
| C[C@H](NP(=O)(OC[C@H]1O[C@@H](n2ccc3c(-c4cccs4)ncnc32)[C@H](O)[C@@H]1O)Oc1ccccc1)C(=O)OCc1ccccc1 (stereo not given in full) | 11.5 |

tested on: CCRF-CEM; experiment: Cell cycle arrest in human CCRF-CEM cells assessed as accumulation at S phase at IC50 concentration using propidium iodide staining by flow cytometry relative to control; format: functional; settings: not given

| SMILES | Activity [%] |
| --- | --- |
| C[C@H](NP(=O)(OC[C@H]1O[C@@H](n2ccc3c(-c4ccoc4)ncnc32)[C@H](O)[C@@H]1O)Oc1ccccc1)C(=O)OCc1ccccc1 (stereo not given in full) | 54 |
| C[C@H](NP(=O)(OC[C@H]1O[C@@H](n2ccc3c(-c4cccs4)ncnc32)[C@H](O)[C@@H]1O)Oc1ccccc1)C(=O)OCc1ccccc1 (stereo not given in full) | 57.9 |

tested on: CCRF-CEM; experiment: Cell cycle arrest in human CCRF-CEM cells assessed as accumulation at G1 phase at IC50 concentration using propidium iodide staining by flow cytometry relative to control; format: functional; settings: not given

| SMILES | Activity [%] |
| --- | --- |
| C[C@H](NP(=O)(OC[C@H]1O[C@@H](n2ccc3c(-c4ccoc4)ncnc32)[C@H](O)[C@@H]1O)Oc1ccccc1)C(=O)OCc1ccccc1 (stereo not given in full) | 37.5 |
| C[C@H](NP(=O)(OC[C@H]1O[C@@H](n2ccc3c(-c4cccs4)ncnc32)[C@H](O)[C@@H]1O)Oc1ccccc1)C(=O)OCc1ccccc1 (stereo not given in full) | 30.7 |

tested on: HepG2; experiment: Cytotoxicity against human HepG2 cells after 3 days by XTT assay; format: functional, cell-based; settings: HepG2, 72 h

| SMILES | IC50 [µM] |
| --- | --- |
| C[C@H](NP(=O)(OC[C@H]1O[C@@H](n2ccc3c(-c4ccoc4)ncnc32)[C@H](O)[C@@H]1O)Oc1ccccc1)C(=O)OCc1ccccc1 (stereo not given in full) | 2.01 |
| C[C@H](NP(=O)(OC[C@H]1O[C@@H](n2ccc3c(-c4cccs4)ncnc32)[C@H](O)[C@@H]1O)Oc1ccccc1)C(=O)OCc1ccccc1 (stereo not given in full) | 0.88 |
| OC[C@H]1O[C@@H](n2ccc3c(-c4cccs4)ncnc32)[C@H](O)[C@@H]1O | 1.19 |

tested on: not listed separately; experiment: Cytotoxicity against human HeLaS3 cells after 3 days by XTT assay; format: functional, cell-based; settings: HeLa S3, 72 h

| SMILES | IC50 [µM] |
| --- | --- |
| C[C@H](NP(=O)(OC[C@H]1O[C@@H](n2ccc3c(-c4ccoc4)ncnc32)[C@H](O)[C@@H]1O)Oc1ccccc1)C(=O)OCc1ccccc1 (stereo not given in full) | 1.31 |
| C[C@H](NP(=O)(OC[C@H]1O[C@@H](n2ccc3c(-c4cccs4)ncnc32)[C@H](O)[C@@H]1O)Oc1ccccc1)C(=O)OCc1ccccc1 (stereo not given in full) | 1.56 |
| OC[C@H]1O[C@@H](n2ccc3c(-c4cccs4)ncnc32)[C@H](O)[C@@H]1O | 0.29 |

tested on: HL-60; experiment: Cytotoxicity against human HL60 cells after 5 days by SRB assay; format: functional; settings: HL-60, 120 h

| SMILES | GI50 [µM] |
| --- | --- |
| C[C@H](NP(=O)(OC[C@H]1O[C@@H](n2ccc3c(-c4ccoc4)ncnc32)[C@H](O)[C@@H]1O)Oc1ccccc1)C(=O)OCc1ccccc1 (stereo not given in full) | > 10 |
| OC[C@H]1O[C@@H](n2ccc3c(-c4cccs4)ncnc32)[C@H](O)[C@@H]1O | 1.2 |

tested on: CCRF-CEM; experiment: Cytotoxicity against human CCRF-CEM cells after 3 days by XTT assay; format: functional, cell-based; settings: 72 h

| SMILES | IC50 [µM] |
| --- | --- |
| C[C@H](NP(=O)(OC[C@H]1O[C@@H](n2ccc3c(-c4ccoc4)ncnc32)[C@H](O)[C@@H]1O)Oc1ccccc1)C(=O)OCc1ccccc1 (stereo not given in full) | 3.11 |
| C[C@H](NP(=O)(OC[C@H]1O[C@@H](n2ccc3c(-c4cccs4)ncnc32)[C@H](O)[C@@H]1O)Oc1ccccc1)C(=O)OCc1ccccc1 (stereo not given in full) | 2.09 |
| OC[C@H]1O[C@@H](n2ccc3c(-c4cccs4)ncnc32)[C@H](O)[C@@H]1O | 8.8 |

tested on: DU-145; experiment: Cytotoxicity against human DU145 cells after 5 days by SRB assay; format: functional; settings: DU-145, 120 h

| SMILES | GI50 [µM] |
| --- | --- |
| C[C@H](NP(=O)(OC[C@H]1O[C@@H](n2ccc3c(-c4ccoc4)ncnc32)[C@H](O)[C@@H]1O)Oc1ccccc1)C(=O)OCc1ccccc1 (stereo not given in full) | 1.09 |
| C[C@H](NP(=O)(OC[C@H]1O[C@@H](n2ccc3c(-c4cccs4)ncnc32)[C@H](O)[C@@H]1O)Oc1ccccc1)C(=O)OCc1ccccc1 (stereo not given in full) | 0.989 |

tested on: not listed separately; experiment: Cytotoxicity against human Hs578 cells after 5 days by SRB assay; format: functional; settings: Hs578, 120 h

| SMILES | GI50 [µM] |
| --- | --- |
| C[C@H](NP(=O)(OC[C@H]1O[C@@H](n2ccc3c(-c4ccoc4)ncnc32)[C@H](O)[C@@H]1O)Oc1ccccc1)C(=O)OCc1ccccc1 (stereo not given in full) | 1.1 |
| C[C@H](NP(=O)(OC[C@H]1O[C@@H](n2ccc3c(-c4cccs4)ncnc32)[C@H](O)[C@@H]1O)Oc1ccccc1)C(=O)OCc1ccccc1 (stereo not given in full) | 1.42 |

tested on: NCI-H23; experiment: Cytotoxicity against human NCI-H23 cells after 5 days by SRB assay; format: functional; settings: NCI-H23, 120 h

| SMILES | GI50 [µM] |
| --- | --- |
| C[C@H](NP(=O)(OC[C@H]1O[C@@H](n2ccc3c(-c4ccoc4)ncnc32)[C@H](O)[C@@H]1O)Oc1ccccc1)C(=O)OCc1ccccc1 (stereo not given in full) | 5.19 |
| C[C@H](NP(=O)(OC[C@H]1O[C@@H](n2ccc3c(-c4cccs4)ncnc32)[C@H](O)[C@@H]1O)Oc1ccccc1)C(=O)OCc1ccccc1 (stereo not given in full) | 5.12 |

tested on: HCT-116; experiment: Cytotoxicity against human HCT116 cells after 5 days by SRB assay; format: functional; settings: HCT-116, 120 h

| SMILES | GI50 [µM] |
| --- | --- |
| C[C@H](NP(=O)(OC[C@H]1O[C@@H](n2ccc3c(-c4ccoc4)ncnc32)[C@H](O)[C@@H]1O)Oc1ccccc1)C(=O)OCc1ccccc1 (stereo not given in full) | 1.42 |
| C[C@H](NP(=O)(OC[C@H]1O[C@@H](n2ccc3c(-c4cccs4)ncnc32)[C@H](O)[C@@H]1O)Oc1ccccc1)C(=O)OCc1ccccc1 (stereo not given in full) | 0.68 |
